Entries after “also recorded” stand apart in the source; their conditions may differ. Read-outs that look alike come from different tables or passages of the source.

This is an account of results in US11084833B2, “Antibacterial agents against D,D- and L,D-transpeptidases” (priority 2016, dated 2021).

The test system of the test is LdtMt2 constructs with single amino acid mutations (Tyr318, His336, His352 and Cys354). The test is classed as binding, M. tuberculosis.

As to `C[C@@H](O)[C@H]1C(=O)N2C(C(=O)[O-])=C(SC3Cn4cnc[n+]4C3)[C@H](C)[C@H]12` (some centres unmarked) [biapenem], the “adduct formation with mutants” value (UPLC-MS, any of the mutant proteins) was “no adducts could be detected”.

On to `C[C@@H](O)[C@H]1C(=O)N2C(C(=O)O)=C([C@H]3CCCO3)S[C@H]12` [faropenem], for which the “ITC binding to mutants” value is listed as “loss of binding” and the “adduct formation with mutants” value is given as “failed to produce adducts; also recorded: did produce stable adducts”.

Regarding `C[C@@H](O)[C@H]1C(=O)N2C(C(=O)O)=C(SC3CN(C4=NCCS4)C3)[C@H](C)[C@H]12` [tebipenem], the “ITC binding to mutants” value is listed as “loss of binding” and the “adduct formation with mutants” value was “failed to produce adducts; also recorded: did produce stable adducts”.
